Assay results published in patent US4966914A, “Oculoselective beta-blockers as antiglaucoma agents” (E. I. Du Pont de Nemours and Company, priority 1988, dated 1990).
Where two headings read alike, the source gives them in different places.

Legend:
[1] = test system: beta-blocking effects; assay: In vivo beta-blocking potency and duration of action (DOA); conditions: Tables 2 and 4
Procedure: (§1) The in vitro potency (pA2), in vivo potency and duration of action (DOA) of the compounds of the present invention are recorded in Tables 2 to 4. These pharmacological activities were determined using the methods described in U.S. patent 4,582,855 issued Apr.

[2] = target: T1, ATRIA (Cavia porcellus, UniProt H0W3H1); assay: In vitro potency (pA2), beta-blocking, atria; type: cell-based
T1 construct: ATRIA; from tissue
T1 sequence (H0W3H1 1-470): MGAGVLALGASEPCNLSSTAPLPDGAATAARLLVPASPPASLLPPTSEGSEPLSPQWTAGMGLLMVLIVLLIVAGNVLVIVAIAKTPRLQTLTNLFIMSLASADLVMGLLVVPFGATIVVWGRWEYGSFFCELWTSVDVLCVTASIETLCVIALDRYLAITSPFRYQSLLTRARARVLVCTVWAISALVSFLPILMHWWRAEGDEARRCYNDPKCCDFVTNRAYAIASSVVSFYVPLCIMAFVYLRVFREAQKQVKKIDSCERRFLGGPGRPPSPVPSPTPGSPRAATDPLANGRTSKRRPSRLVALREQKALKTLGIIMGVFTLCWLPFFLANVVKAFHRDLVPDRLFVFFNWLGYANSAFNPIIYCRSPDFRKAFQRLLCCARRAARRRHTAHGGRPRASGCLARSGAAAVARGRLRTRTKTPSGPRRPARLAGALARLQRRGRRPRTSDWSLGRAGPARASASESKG
Procedure: as §1

[3] = Ocular bioavailability in rabbits; type: in vivo, New Zealand White Rabbits; conditions: for Tmax: rabbit, topical or ocular
Procedure: The ocular bioavailability of Timolol and compound 1 (monopivaloyl ester prodrug of compound 2) was evaluated in New Zealand White Rabbits. Fifty μL of a solution of 0.25% Timolol or 0.5% compound 1 (both in the same vehicle) were administered onto the cornea of both eyes of 48 rabbits (24 rabbits/compound). At 5, 15, 30, 60, 120, 180, 240, and 360 minutes after dosing, 3 rabbits (6 eyes)/compound were killed. The cornea, aqueous humor (AH), iris-ciliary body complex (I-CBC) were quickly removed from the eyes, weighed and processed to determine tissue levels of Timolol or compound 1 and compound 2.

[4] = test system: isoproterenol-induced changes in heart rate or diastolic blood pressure; assay: Effect on systemic beta-blockade upon topical administration (isoproterenol-induced changes in heart rate or diastolic blood pressure); type: in vivo, Mongrel dogs; conditions: for Diastolic blood pressure (DBP) / Heart rate (HR): Table 1, 0.5%
Procedure: Mongrel dogs were anesthetized and control readings were made at -45 and -30 minutes. Following the -30 minute reading, an infusion of isoproterenol (0.5 μg/kg/min) was begun and maintained during the course of the experiment. Two readings of pretreatment isoproterenol responses were made at […] and at zero minutes.
At zero minutes, a 50 μL sample of test compound was administered topically. […] Heart rate was obtained directly from the strip chart recording.

[5] = Tables 2 and 4, read-out: In-vitro potency pA2 (converted)
[6] = Table 3, atria, read-out: pA2 ATRIA (converted)
[7] = 50 μL, 0.25% solution, single or repeated topical applications
[8] = 15 min post-treatment, isoproterenol infusion
[9] = 30 min post-treatment, isoproterenol infusion
[10] = 45 min post-treatment, isoproterenol infusion
[11] = 60 min post-treatment (dose), isoproterenol infusion
[12] = 75 min post-treatment, isoproterenol infusion
[13] = 90 min post-treatment, isoproterenol infusion
[14] = 105 min post-treatment, isoproterenol infusion
[15] = 120 min post-treatment (dose), isoproterenol infusion
[16] = 135 min post-treatment, isoproterenol infusion
[17] = 150 min post-treatment, isoproterenol infusion
[18] = 165 min post-treatment, isoproterenol infusion
[19] = 180 min post-treatment, isoproterenol infusion
[20] = Table 1 summary, given as "down"

Cc1cc(O)c(O)cc1C(=O)OCC(O)CNC(C)(C)CNC(=O)C1CCOCC1 (centres unmarked)
DOA (duration of action) [1]: 26 min
Kb [2, 5]: 5.01 nM

Cc1cc(O)c(O)cc1C(=O)OCC(O)CNC(C)(C)CNC(=O)c1ccccc1F (centres unmarked)
Kb [2, 6]: 100 nM

CCCC(=O)NCC(C)(C)NCC(O)COC(=O)c1cc(O)c(O)cc1C (centres unmarked)
Kb [2, 6]: 6.31 nM

Cc1cc(O)c(O)cc1C(=O)OCC(O)CNC(C)(C)CNC(=O)C(C)C (centres unmarked)
DOA (duration of action) [1]: 42 min
Kb [2, 5]: 6.31 nM

CC(C)(CNC(=O)C1CCOC1)NCC(O)COC(=O)c1ccc(O)c(O)c1 (centres unmarked)
Kb [2, 6]: 1.26 nM

COc1cc(O)c(O)cc1C(=O)OCC(O)CNC(C)(C)CNC(=O)C(C)C (centres unmarked) [drawing 30]
Kb [2, 6]: 12.6 nM

Cc1cc(O)c(O)cc1C(=O)OCC(CNC(C)(C)CNC(=O)C1CCOC1)OC(=O)C(C)(C)C (centres unmarked) [Compound 1]
Absorption across the cornea ([3]; 0.25% Timolol or 0.5% compound 1, topical): rapidly absorbed across the cornea
Metabolism of compound 1 to compound 2 ([3]; 0.5% compound 1, topical): rapid metabolism of compound 1 to compound 2
AUC in AH relative to AUC of Timolol in AH ([3]; 0.5% compound 1 vs 0.25% Timolol, greater than Timolol): 3 ×
Detectability in I-CBC ([3]; I-CBC, 0.5% compound 1): not detectable
Tmax ([3]; aqueous humor, AH, 0.25% Timolol or 0.5% compound 1, read-out: Time of peak level in aqueous humor (AH) (converted)): 30 min
Tmax ([3]; cornea, 0.25% Timolol or 0.5% compound 1, read-out: Time of peak level in cornea (converted)): 5 min
Effect on diastolic blood pressure response to isoproterenol ([4]; 50 μL at 0.5 or 1.0% solution): without any significant effect
Systemic beta-blockade of isoproterenol-induced increase in heart rate ([4]; 50 μL at 0.5 or 1.0% solution): no significant systemic beta-blockade
Diastolic blood pressure response to isoproterenol ([4]; 50 μL at 0.5 or 1.0% solution, from-to): 58-63 mmHg
Effect on diastolic blood pressure response to isoproterenol [4, 7]: no effect
Effect on heart rate response to isoproterenol [4, 7]: no effect
Diastolic blood pressure (DBP) ([4]; 0 min, ISO only): 58 mmHg
Heart rate (HR) ([4]; 0 min, ISO only): 199 bpm
Diastolic blood pressure (DBP) [4, 8]: 56 mmHg
Heart rate (HR) [4, 8]: 195 bpm
Diastolic blood pressure (DBP) [4, 9]: 55 mmHg
Heart rate (HR) [4, 9]: 192 bpm
Diastolic blood pressure (DBP) [4, 10]: 54 mmHg
Heart rate (HR) [4, 10]: 188 bpm
Diastolic blood pressure (DBP) [4, 11]: 55 mmHg
Heart rate (HR) [4, 11]: 189 bpm
Diastolic blood pressure (DBP) [4, 12]: 55 mmHg
Heart rate (HR) [4, 12]: 189 bpm
Diastolic blood pressure (DBP) [4, 13]: 56 mmHg
Heart rate (HR) [4, 13]: 189 bpm
Diastolic blood pressure (DBP) [4, 14]: 57 mmHg
Heart rate (HR) [4, 14]: 190 bpm
Diastolic blood pressure (DBP) [4, 15]: 59 mmHg
Heart rate (HR) [4, 15]: 192 bpm
Diastolic blood pressure (DBP) [4, 16]: 61 mmHg
Heart rate (HR) [4, 16]: 192 bpm
Diastolic blood pressure (DBP) [4, 17]: 60 mmHg
Heart rate (HR) [4, 17]: 192 bpm
Diastolic blood pressure (DBP) [4, 18]: 60 mmHg
Heart rate (HR) [4, 18]: 192 bpm
Diastolic blood pressure (DBP) [4, 19]: 63 mmHg
Heart rate (HR) [4, 19]: 193 bpm
Diastolic blood pressure (DBP) ([4]; -30 min, baseline): 87 mmHg
Heart rate (HR) ([4]; -30 min, baseline): 143 bpm
Summary: BP ([4]; Table 1 summary, from ISO only to end of experiment): 58-63 mmHg
Summary: BP change [4, 20]: 5 mmHg
Summary: HR change [4, 20]: 6 bpm
Systemic beta-blocking activity as compared to Timolol ([4]; conclusion in words): has systemic beta-blocking activity as compared to Timolol
Selectivity of peripheral effects ([4]; high concentration, unlike Timolol): selective for beta-1 (heart rate) responses

CC(C)C(=O)NCC(C)(C)NCC(O)COC(=O)c1cc(O)c(O)cc1N (centres unmarked)
Kb [2, 6]: 79.4 nM

Cc1cc(O)c(O)cc1C(=O)OCC(O)CNC(C)(C)CNC(=O)c1ccccc1 (centres unmarked)
Kb [2, 6]: 20 nM

CCOc1cc(O)c(O)cc1C(=O)OCC(O)CNC(C)(C)CNC(=O)C(C)C (centres unmarked) [drawing 32]
Kb [2, 6]: 20 nM

Cc1cc(O)c(O)cc1C(=O)OCC(O)CNC(C)(C)CNC(=O)C1CCOC1 (centres unmarked) [Compound 2]
Area under the concentration time curve (AUC0-240'), AH ([3]; AH, 0-240 min, 0.25% Timolol or 0.5% compound 1): 27,377 ng/100 μL/min
Area under the concentration time curve (AUC0-240'), I-CBC ([3]; I-CBC, 0-240 min, 0.25% Timolol or 0.5% compound 1): 2,981 ng/50 mg/min
Area under the concentration time curve (AUC0-240'), cornea ([3]; cornea, 0-240 min, 0.25% Timolol or 0.5% compound 1): 95,789 ng/50 mg/min
Stability in rabbit ocular tissues ([3]; rabbit ocular tissues): stable in rabbit ocular tissues

COc1cc(O)c(O)cc1C(=O)OCC(O)CNC(C)(C)CNC(=O)C1CCCCC1 (centres unmarked)
Kb [2, 6]: 25.1 nM

COc1ccc(C(=O)NCC(C)(C)NCC(O)COC(=O)c2cc(O)c(O)cc2C)cc1 (centres unmarked)
Kb [2, 6]: 31.6 nM

COc1ccccc1C(=O)NCC(C)(C)NCC(O)COC(=O)c1cc(O)c(O)cc1C (centres unmarked)
Kb [2, 6]: 398 nM
